EC50 data for six molecules are collected here from BindingDB's records for patent US20230348426 (Bristol-Myers Squibb, 2023).

Test [1] addresses T1, fMet-Leu-Phe receptor (Homo sapiens, UniProt P21462).
T1 sequence (P21462 whole entry): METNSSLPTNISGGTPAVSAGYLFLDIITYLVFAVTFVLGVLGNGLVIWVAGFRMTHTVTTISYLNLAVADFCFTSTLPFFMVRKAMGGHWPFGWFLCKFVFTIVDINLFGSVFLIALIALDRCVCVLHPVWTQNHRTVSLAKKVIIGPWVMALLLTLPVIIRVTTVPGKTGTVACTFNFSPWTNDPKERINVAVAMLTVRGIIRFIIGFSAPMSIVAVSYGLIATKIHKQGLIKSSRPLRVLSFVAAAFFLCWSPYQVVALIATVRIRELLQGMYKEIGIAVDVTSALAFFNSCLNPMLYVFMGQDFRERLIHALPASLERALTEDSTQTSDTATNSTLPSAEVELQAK
The test is described as follows: FPR2 and FPR1 Cyclic Adenosine Monophosphate (cAMP) Assays. Here is the method:
(§1) A mixture of forskolin (5 M final for FPR2 or 10 M final for FPR1) and IBMX (200 M final) were added to 384-well Proxiplates (Perkin-Elmer) pre-dotted with test compounds in DMSO (1% final) at final concentrations in the range of 0.020 nM to 100 µM. Chinese Hamster Ovary cells (CHO) overexpressing human FPR1 or human FPR2 receptors were cultured in F-12 (Ham s) medium supplemented with 10% qualified FBS, 250 µg/ml zeocin and 300 µg/ml hygromycin (Life Technologies). Reactions were initiated by adding 2,000 human FPR2 cells per well or 4,000 human FPR1 cells per well in Dulbecco s PBS (with calcium and magnesium) (Life Technologies) supplemented with 0.1% BSA (Perkin-Elmer). The reaction mixtures were incubated for 30 min at room temperature. The level of intracellular cAMP was determined using the HTRF HiRange cAMP assay reagent kit (Cisbio) according to manufacturer s instruction. Solutions of cryptate conjugated anti-cAMP and d2 flurorophore-labelled cAMP were made in a supplied lysis buffer separately. Upon completion of the reaction, the cells were lysed with equal volume of the d2-cAMP solution and anti-cAMP solution. […] The potency and activity of a compound to inhibit cAMP production was then determined by fitting to a 4-parametric logistic equation from a plot of cAMP level versus compound concentrations.

For test [2], the target named is T2, N-formyl peptide receptor 2 (Homo sapiens, UniProt P25090).
T2 sequence (P25090 whole entry): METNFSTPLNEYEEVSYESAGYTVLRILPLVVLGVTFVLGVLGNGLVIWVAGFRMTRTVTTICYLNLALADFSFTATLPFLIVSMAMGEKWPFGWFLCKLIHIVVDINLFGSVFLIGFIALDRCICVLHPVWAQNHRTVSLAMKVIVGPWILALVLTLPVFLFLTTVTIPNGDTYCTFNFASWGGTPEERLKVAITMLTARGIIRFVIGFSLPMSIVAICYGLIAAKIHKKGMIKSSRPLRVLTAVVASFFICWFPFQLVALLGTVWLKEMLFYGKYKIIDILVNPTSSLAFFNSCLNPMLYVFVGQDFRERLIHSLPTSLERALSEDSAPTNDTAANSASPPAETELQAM
Described as above. Here is the method: as §1

Usually EC50 stands for the concentration that produces a half-maximal response. Take `COc1cc(F)c([C@@H]2CN(c3nc(N4CCCS4(=O)=O)ccc3F)C(=O)[C@H]2NC(=O)c2ccc(OC(F)(F)F)cc2)c(F)c1` [US20230348426, Example 289]: the figures for the EC50 in test [1] and in test [2] were 62 nM and 8.6 nM, respectively.
As for `COc1cc(F)c([C@@H]2CN(c3c(C)ccn(C4CCN(C)C4)c3=O)C(=O)[C@H]2NC(=O)c2ccc(Cl)cc2)c(F)c1` (some centres not stated) [US20230348426, Example 510], the figures for the EC50 in test [1] and in test [2] were 290 nM and 3.5 nM, respectively.
On the same counts, the results for `COc1cc(C2CCN(C)CC2)nc(N2C(=O)[C@@H](NC(=O)c3ccc(Cl)cc3)[C@H](c3c(F)cc(OC)cc3F)[C@H]2C)c1` [US20230348426, Example 558] are 2000 nM and 6.4 nM.
On to `COc1cc(F)c([C@@H]2CN(c3c(C)ccn(C4CCS(=O)(=O)CC4)c3=O)C(=O)[C@H]2NC(=O)c2ccc(Cl)cc2)c(F)c1` [US20230348426, Example 625], for which the EC50 in test [1] was determined as 12 nM; in test [2], 1.9 nM.
Turning to `COc1cc(F)c([C@@H]2CN(c3c(C)ccn(CC(O)C4CC4)c3=O)C(=O)[C@H]2NC(=O)c2ccc(Cl)cc2)c(F)c1` (some centres not stated) [US20230348426, Example 684], the EC50 stood at 5 nM in test [1] and 7 nM in test [2].
On to `COc1cc(F)c([C@@H]2CN(c3nc(N4CC(CO)OCC4=O)ccc3F)C(=O)[C@H]2NC(=O)c2ccc(OC(F)F)cc2)c(F)c1` (some centres not stated) [US20230348426, Example 331], for which the EC50 in test [1] is 5600 nM; in test [2], 13 nM.
